Results on 1 compound are retold here after patent US5977075A, “N-aroylamino acid amides as endothelin inhibitors” (Novartis AG, priority 1997, dated 1999).

For one assay, the target named is T1, ETA (Rattus norvegicus, UniProt P26684).
T1 construct: from tissue; host or cells: thoracic aorta segments from Sprague-Dawley male rats
T1 sequence (P26684 21-426): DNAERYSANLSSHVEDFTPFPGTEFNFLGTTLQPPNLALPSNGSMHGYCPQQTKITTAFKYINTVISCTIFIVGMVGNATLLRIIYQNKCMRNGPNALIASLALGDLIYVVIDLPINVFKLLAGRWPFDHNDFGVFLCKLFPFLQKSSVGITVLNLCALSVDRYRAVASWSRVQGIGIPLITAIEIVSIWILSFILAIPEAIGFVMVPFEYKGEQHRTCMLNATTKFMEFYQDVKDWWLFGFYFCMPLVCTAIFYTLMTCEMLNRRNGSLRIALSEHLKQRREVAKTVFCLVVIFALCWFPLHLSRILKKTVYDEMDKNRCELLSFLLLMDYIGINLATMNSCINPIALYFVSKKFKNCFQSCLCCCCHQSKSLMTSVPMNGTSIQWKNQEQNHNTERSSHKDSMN
The experiment in a line: Isolated tissue study, isometric tension, thoracic aorta. The settings on record: antagonist added 30 minutes prior to ET-1 or STX6c. Further details: species or system Sprague-Dawley male rats. The procedure:
(§1) 2. Isolated Tissue Studies
(§2) Studies measuring isometric tension are carried out according to the procedure of Shetty et al. (Biochem. Biophys. Res. Comm. 1993; 191:459-464). Saphenous veins (for antagonism of ETB) are obtained from mongrel dogs which are anesthetized with pentobarbital. Thoracic aortas are obtained from Sprague-Dawley male rats (for antagonism of ETA). Coronary arteries are obtained from porcine hearts. Tissue segments (4-5 mm) from each vascular preparation are equilibrated for 90 minutes during which time the tissues are adjusted to a preload tension of 2 gm, except for the porcine coronary which is adjusted to 4 gm preload. Concentration-response curves are generated by the cumulative addition of the peptides. Antagonists are added 30 minutes prior to the addition of ET-1 or STX6c. Contractions are expressed as a percentage of the response to […] KCl. Relaxation is quantitated by expressing the tension after relaxation as a percent of the tension induced by 1 mM phenylephrine.

The target of the next assay is T2, human ETB (Homo sapiens, UniProt P24530).
T2 construct: expressed in transfected cells; host or cells: CHO (Chinese hamster ovary) cells, membrane preparation
T2 sequence (P24530 27-442): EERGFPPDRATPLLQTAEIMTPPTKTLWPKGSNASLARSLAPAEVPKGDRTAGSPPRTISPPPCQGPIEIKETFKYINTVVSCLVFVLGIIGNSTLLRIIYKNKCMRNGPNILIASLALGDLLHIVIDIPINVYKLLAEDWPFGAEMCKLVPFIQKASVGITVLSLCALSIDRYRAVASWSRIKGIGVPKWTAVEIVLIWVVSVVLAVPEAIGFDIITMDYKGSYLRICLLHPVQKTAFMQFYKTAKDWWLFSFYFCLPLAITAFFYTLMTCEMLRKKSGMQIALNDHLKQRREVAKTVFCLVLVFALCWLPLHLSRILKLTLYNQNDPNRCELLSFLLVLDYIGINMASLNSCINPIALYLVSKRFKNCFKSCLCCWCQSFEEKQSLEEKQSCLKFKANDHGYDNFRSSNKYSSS
The experiment in a line: Competition binding of [125I] ET-1 to CHO-ETB membranes. The settings on record: [125I] ET-1, 2 hours at 37° C. The procedure:
(§3) 1. Binding Studies--ETA and ETB ;
(§4) Chinese hamster ovary cells expressing human ETA (CHO-ETA) or ETB (CHO-ETB) receptors are cultured in F12 medium (cibcoBRL, Grand Island, N.Y.) containing 10% fetal bovine serum and 1× antibiotic-antimycotic (GibcoBRL). Cells are harvested, then centrifuged, and finally homogenized in buffer containing 1 mM EDTA and […] Tris, pH 8.0. The cell debris is removed by brief centrifugation, and then the supernatant centrifuged again at 50,000×g for 10 minutes. The resulting pellet is resuspended in Hanks' balanced salt solution at a protein concentration of […] and stored in aliquots at -80° C. Competition binding is carried out by in incubating 0.2-1.0 mg of membrane protein from CHO-ETA or CHO-ETB cells with 12,000 cpm [^125 I] ET-1 (New England Nuclear, Boston, Mass.) with or without the competing ligand for 2 hours at 37° C. in a buffer containing 0.2 mg/ml bovine serum albumin, 0.002% Triton X-100, 0.02% NaN3, and […] Tris, pH 7.0. The reaction is terminated by filtration through a cell harvester (Brandel, Gaitherburg, Md.) using GF/C filters. Triplicate samples are carried out in each experiment, and if appropriate, the full dose-response curve for each competing ligand is performed at least three times. […]

A further assay addresses T3, human ETA (Homo sapiens, UniProt P25101).
T3 construct: expressed in transfected cells; host or cells: CHO (Chinese hamster ovary) cells, membrane preparation
T3 sequence (P25101 21-427): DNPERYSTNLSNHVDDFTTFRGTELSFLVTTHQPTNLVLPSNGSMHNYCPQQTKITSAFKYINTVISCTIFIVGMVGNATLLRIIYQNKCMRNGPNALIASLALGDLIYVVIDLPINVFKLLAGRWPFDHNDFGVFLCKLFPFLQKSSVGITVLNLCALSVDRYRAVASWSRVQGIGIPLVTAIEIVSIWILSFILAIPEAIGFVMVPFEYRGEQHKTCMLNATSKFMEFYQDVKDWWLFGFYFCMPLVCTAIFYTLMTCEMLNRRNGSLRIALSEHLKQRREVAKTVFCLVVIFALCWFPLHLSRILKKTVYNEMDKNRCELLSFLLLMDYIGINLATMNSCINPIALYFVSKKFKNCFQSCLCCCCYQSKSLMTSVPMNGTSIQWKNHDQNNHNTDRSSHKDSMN
Description: Competition binding of [125I] ET-1 to CHO-ETA membranes. As to conditions: [125I] ET-1, 2 hours at 37° C. The procedure:
as §3, §4

Another assay has as its target T4, ETB (Canis lupus familiaris, UniProt P56497).
T4 construct: from tissue; host or cells: saphenous vein segments from mongrel dogs
T4 sequence (P56497 27-442): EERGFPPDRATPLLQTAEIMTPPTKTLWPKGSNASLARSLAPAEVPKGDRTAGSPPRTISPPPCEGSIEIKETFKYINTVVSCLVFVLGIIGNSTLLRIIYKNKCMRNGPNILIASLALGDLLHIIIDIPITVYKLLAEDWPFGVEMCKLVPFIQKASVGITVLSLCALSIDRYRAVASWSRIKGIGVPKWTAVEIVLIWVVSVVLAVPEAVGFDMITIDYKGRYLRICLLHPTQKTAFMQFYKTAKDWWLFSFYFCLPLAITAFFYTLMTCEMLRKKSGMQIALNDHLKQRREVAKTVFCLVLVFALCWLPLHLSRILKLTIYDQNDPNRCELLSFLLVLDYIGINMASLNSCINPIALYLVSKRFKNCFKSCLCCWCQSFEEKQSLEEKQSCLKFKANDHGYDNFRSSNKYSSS
The experiment in a line: Isolated tissue study, isometric tension, dog saphenous veins. As to conditions: antagonist added 30 minutes prior to ET-1 or STX6c. Set-up: species or system mongrel dogs. The procedure:
as §1, §2

Turning to `CCCCS(=O)(=O)NC(=O)C1(NC(=O)[C@@H](Cc2ccc(-n3cccc3)cc2)N(C)C(=O)c2cc(C)cc(C)c2)CC1` [example 1, R-N-[N-3,5-dimethylbenzoyl-N-methyl-3-[4-(1-pyrrolyl)phenyl]alanyl]-1-aminocyclo propane-1-N-(n-butanesulfonyl)carboxamide], at ETA, the “ET-induced contractile response in thoracic aorta” value is recorded as “inhibit ET-induced contractile response”. Also, the IC50 on human ETB and on human ETA was under 1 nM each time. The “ET-induced contractile response in dog saphenous veins” value at ETB was “inhibit ET-induced contractile response”.
